Laboratory results taken from ChEMBL document CHEMBL3608297, “Structure-based de novo design and synthesis of aminothiazole-based p38 MAP kinase inhibitors” (Bioorg Med Chem Lett, 2015).

Target: MAP kinase p38 (Homo sapiens, UniProt O15264+Q15759+Q16539+P53778)
Test: Inhibition of p38 MAP kinase (unknown origin) by biochemical assay
Format: protein assay

| IC50 | Compound |
| --- | --- |
| 450 nM | Nc1cccc(Nc2ncc(C(=O)c3ccccc3Cl)s2)c1F |
| 910 nM | O=C(c1cnc(Nc2ccc(Cl)cc2)s1)c1ccccc1Cl |
| 330 nM | O=C(c1cnc(Nc2ccc(F)cc2)s1)c1ccccc1Cl |
| 1070 nM | O=C(c1ccccc1)c1cnc(Nc2ccccc2)s1 |
| 16200 nM | Nc1cccc(Nc2ncc(C(=O)c3ccccc3Cl)s2)c1 |
| 1230 nM | COc1cccc(C(=O)c2cnc(Nc3ccccc3)s2)c1 |
| 180 nM | O=C(c1cnc(Nc2ccc(F)cc2F)s1)c1ccccc1Cl |
| 1620 nM | O=C(c1cnc(Nc2cccc([N+](=O)[O-])c2)s1)c1ccccc1Cl |
| 1310 nM | O=C(c1cccc(O)c1)c1cnc(Nc2ccccc2)s1 |

Second part, the molecule before the results:

| Compound | IC50 |
| --- | --- |
| COc1ccc(Nc2ncc(C(=O)c3ccccc3Cl)s2)cc1 | 1440 nM |
| Cc1ccccc1C(=O)c1cnc(Nc2ccccc2)s1 | 116000 nM |
| O=C(c1cnc(Nc2ccc(O)cc2F)s1)c1ccccc1Cl | 250 nM |
| O=C(Nc1cccc(Nc2ncc(C(=O)c3ccccc3Cl)s2)c1)c1ccccc1 | 1200 nM |
| O=C(Nc1cccc(Nc2ncc(C(=O)c3ccccc3Cl)s2)c1F)c1ccccc1 | 1980 nM |
| O=C(c1cnc(Nc2ccc(O)cc2)s1)c1ccccc1Cl | 2040 nM |
| Nc1ccc(Nc2ncc(C(=O)c3ccccc3Cl)s2)cc1 | > 200000 nM |
| O=C(c1cnc(Nc2ccccc2)s1)c1ccccc1Cl | 610 nM |
| O=C(c1cnc(Nc2ccccc2)s1)c1ccccc1Br | 1070 nM |
| O=C(c1cnc(Nc2ccccc2F)s1)c1ccccc1Cl | 790 nM |
| O=C(c1cnc(Nc2cccc([N+](=O)[O-])c2F)s1)c1ccccc1Cl | 12700 nM |
| O=C(c1cnc(Nc2ccc(Br)cc2)s1)c1ccccc1Cl | 940 nM |
